# Reference: patent publication US10028992B2, “Methods of treating muscular dystrophy” (BOARD OF REGENTS OF THE NEVADA SYSTEM OF HIGHER EDUCATION …, priority 2012, dated 2018)
# Like-named read-outs stand apart in the source and are kept apart here.
# System: α7 integrin promoter
# Test: muscle cell-based assay: α7βgal+/− myoblasts/myotubes, LacZ reporter, β-galactosidase cleavage of FDG
# Parameters: species or system mouse
# Settings: for EC50: Mus musculus, read-out: Fit LogAC50 (converted)
# Procedure: An α7 integrin null mouse was produced in which exon 1 of the gene encoding the α7 integrin was replaced by the LacZ reporter. In these mice, all the transcriptional regulatory elements of the α7 integrin promoter were retained, allowing β-galactosidase to report expression of 7 integrin. A primary myoblast cell line (designated α7βgal^+/−) isolated from 10 day old α7^+/− pups were analyzed for the ability of β-galactosidase to report α7 integrin expression. α7βgal^+/− myoblasts were differentiated and subjected to X-gal staining and western analysis (FIGS. 1A and 1B).
# The activity of the α7 integrin promoter was measured by β-galactosidase cleavage of the non-fluorescent compound fluorescein di-β-D-galactopyranoside (FDG) to fluorescein. This assay was used to screen compound libraries to identify molecules that up-regulate α7 integrin expression in muscle.
# Also evaluated was the effect of various isoforms of laminin and the ligand for α7β1 integrin on integrin expression. Positive hits were subjected to dose-response analysis, western analysis and a myostatin counterscreen (a negative regulator of muscle growth).
# [1] = given as log AC50 (negative values)
# [2] = curve class number, key not given
# [3] = curve fit, activity at zero concentration
EC50 [1],Compound,Score (Table 12 compound data),Fit Curve Class [2],Fit HillSlope (curve fit),Fit Zero Activity [%] [3],Fit Curve Class,Fit HillSlope,Fit Zero Activity [%],Score,EC50,"Fit Infinite Activity [%] (curve fit, activity at infinite concentration)",Fit LogAC50 [1]
5.62 µM,COc1ccc(O)c(/C=N/NC(=O)c2cc(O)nc3ccccc23)c1 [Compound 179],42,2.1,2.2526,−35.6913%,,,,,,,
10 µM,CCOc1ccc(NC(=O)CN2C(=O)NC(CCSC)C2=O)cc1 (stereo not shown) [Compound 180],42,2.2,3.1925,−1.6238%,,,,,,,
,Br.COc1ccc(C(=O)CN2CCCCC2)cc1 [Compound 181],,,,,2.1,4.9549,12.5%,42,12.6 µM,,
,CNP(=O)(Oc1ccccc1)OC12CC3CC(CC(C3)C1)C2 (stereo not shown) [Compound 182],,,,,2.1,2.2481,−0.8571%,42,10 µM,,
10 µM,O=C(CCc1ccccc1)c1nnc(-c2ccccc2)o1 [Compound 183],42,2.1,4.4495,1.0471%,,,,,,,
10 µM,COc1ccc(CNC(=O)COC(=O)CCc2c[nH]c3ccccc23)cc1 [Compound 184],42,2.1,2.9023,−0.6011%,,,,,,,
10 µM,COc1ccccc1OCC(=O)N/N=C1/C=C(C)CC1 [Compound 185],42,2.1,4.9549,−23.4705%,,,,,,,
3.98 µM,CC(C(=O)Nc1ccc(C#N)cc1)N(C)CC(=O)Nc1cccc(F)c1 (stereo not shown) [Compound 186],42,2.1,0.9,−45.5302%,,,,,,,
8.91 µM,COC(=O)C1SCC2C(=O)N(Cc3ccc(F)cc3)CC(=O)N21 (stereo not shown) [Compound 187],42,2.1,1.3437,−54.3669%,,,,,,,
10 µM,COc1ccc(-c2cc(COc3ccccc3)on2)cc1 [Compound 188],42,2.1,4.5045,0.195%,,,,,,,
8.91 µM,Sc1nnc(Cn2cnc3ccccc32)n1-c1ccccc1 [Compound 189],42,2.2,0.8,8.5392%,,,,,,,
11.2 µM,CN(C#N)c1nccc(-c2cccs2)n1 [Compound 190],42,2.1,2.0937,−28.9068%,,,,,,,
11.2 µM,O=Cc1cnc(N2CCCCC2)s1 [Compound 191],42,2.1,4.9549,−19.3188%,,,,,,,
11.2 µM,Nc1nccc(-c2ccc(-n3cnc4ccccc43)cc2)n1 [Compound 192],42,2.2,4.095,2.4789%,,,,,,,
11.2 µM,COc1cc2c(cc1OC)C(NC(=O)C(F)(F)F)C/C2=N\O (stereo not shown) [Compound 193],42,2.1,4.095,2.547%,,,,,,,
,COc1ccc(N2CCN(CCC3Oc4cc([N+](=O)[O-])ccc4NC3=O)CC2)cc1 (stereo not shown) [Compound 194],42,2.2,1.7137,−2.9581%,,,,,,73.9084%,−5.05
10 µM,N#Cc1ccc(OCC(O)CS(=O)(=O)c2ccccc2)cc1 (stereo not shown) [Compound 195],42,2.1,4.045,−9.8792%,,,,,,,
10 µM,Cc1ccccc1C(=O)Nc1nnc(SC(C)C)s1 [Compound 196],42,2.2,2.8473,−0.5091%,,,,,,,
8.91 µM,CC(=O)c1cccc(NC(=O)C(=O)Nc2cccc3ccccc23)c1 [Compound 197],42,2.2,0.9,1.5%,,,,,,,
10 µM,Cc1cc(C)nc(NC(=O)c2ccc(Cl)cc2Cl)n1 [Compound 198],42,2.2,4.9549,1.0914%,,,,,,,

EC50 [1],Compound,Score (Table 12 compound data),Fit Curve Class [2],Fit HillSlope (curve fit),Fit Zero Activity [%] [3],Fit Curve Class,Fit HillSlope,Fit Zero Activity [%],Score,EC50,"Fit Infinite Activity [%] (curve fit, activity at infinite concentration)",Fit LogAC50 [1]
12.6 µM,CC(C)N(CCO)C(=O)CCc1nnc(CCCc2ccccc2)o1 [Compound 199],42,2.2,1.2876,0.1862%,,,,,,,
8.91 µM,c1ccc(CN2CCCC3(CCCN(Cc4nc(CC5CC5)no4)C3)C2)cc1 (stereo not shown) [Compound 200],42,2.1,1.4781,−42.0662%,,,,,,,
11.2 µM,Cn1c(=O)c2c(nc(Sc3ncnn3CC(=O)NC3CCCCC3)n2C)n(C)c1=O [Compound 201],42,2.1,2.3531,−19.8816%,,,,,,,
,NS(=O)(=O)c1ccc(NC(=O)Nc2ccc(Cl)cc2)cc1 [Compound 202],,,,,2.2,1.8617,,,,,
7.08 µM,CC1=C(C#N)C(=O)N(C)C(=O)/C1=C\NNc1ccc(F)cc1 [Compound 203],42,2.1,1.4781,−47.2995%,,,,,,,
10 µM,CCS(=O)(=O)N1CCN(c2ccc([N+](=O)[O-])c(NCC3CCCO3)c2)CC1 (stereo not shown) [Compound 204],42,2.2,3.5722,0.4864%,,,,,,,
7.08 µM,O=C(NC(=S)NCCC1=CCCCC1)c1ccc(Br)o1 [Compound 205],42,2.1,1.4781,−40.2978%,,,,,,,
11.2 µM,CCCC(=O)Nc1ccccc1NC(=O)c1ccc(OCC)cc1 [Compound 206],42,2.1,4.095,13.9528%,,,,,,,
10 µM,NS(=O)(=O)c1ccc(NC(=O)c2ccc(CNS(=O)(=O)c3cc(C(F)(F)F)ccc3Cl)cc2)cc1 [Compound 207],42,2.2,2.5334,0.1699%,,,,,,,
10 µM,COc1ccc(CN2CCNC(=O)C2CC(=O)NCCc2c[nH]c3ccccc23)c(OC)c1 (stereo not shown) [Compound 208],42,2.2,3.1925,−9.1413%,,,,,,,
,O=Cc1cn(Cc2ccc(F)cc2Cl)c2ccccc12 [Compound 209],,,,,2.1,4.095,12.1779%,42,15.8 µM,,
12.6 µM,Cc1ccc(-c2nc(C)sc2CC(=O)OCC(=O)Nc2c(F)cccc2F)cc1 [Compound 210],42,2.1,4.9549,11.9156%,,,,,,,
11.2 µM,CNC(=O)/C(=C\c1cccc(Oc2ccccc2)c1)NC(=O)c1ccccc1 [Compound 211],42,2.1,1.1341,−0.265%,,,,,,,
14.1 µM,O=S(=O)(NCC(c1ccco1)N1CCOCC1)c1ccc(Cl)cc1 (stereo not shown) [Compound 212],42,2.1,4.5045,9.0119%,,,,,,,
11.2 µM,C=CCc1c(C)nc(-c2ccccc2)nc1N/N=C/c1ccccc1 [Compound 213],42,2.1,1.2876,−1.0122%,,,,,,,
11.2 µM,CCc1ccc(Sc2cc(C(=O)NCCN3CCOCC3)c3ccccc3n2)cc1 [Compound 214],42,2.1,2.0937,13.9034%,,,,,,,
10 µM,O=C(Nc1ccc(Oc2cccnc2)cc1)c1ccccc1Cl [Compound 215],42,2.1,2.1211,13.9023%,,,,,,,
10 µM,O=C(CNC(=O)c1cccc(F)c1)N/N=C/c1cc(Br)ccc1OCc1ccccc1 [Compound 216],42,2.2,0.8,3.67%,,,,,,,
10 µM,COc1ccc(CCNC(=O)c2cc(-c3cc(C)ccc3O)n[nH]2)cc1OC [Compound 217],42,2.2,3.0654,9.7958%,,,,,,,
